Assay results: US9499550B2 (BRISTOL-MYERS SQUIBB COMPANY, priority 2012, dated 2016)
Read-outs that look alike come from different tables or passages of the source.

How the values were obtained:
[1] = test system: HCV genotype 1b (Con1) replicon in HUH-7 cells; experiment: HCV replicon luciferase reporter assay, genotype 1b; type: cell-based; conditions: Hepatitis C virus, Huh-7, 72 h, 3 days incubation, read-out: LE_1b (EC50, range)
Procedure, shortened: (§1)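 Replicon inhibition for both genotypes was measured as Renilla luciferase signal (EnduRen, 7.5 μM final, 2 h) after 3-day, 37° C exposure of replicon-bearing HUH-7 cells in 4% FCS DMEM, 0.5% DMSO. The 1b construct carries S1179I; the 1a H77 construct carries P1496L and S2204I. Twenty-point, 3-fold dilutions were fitted four-parametrically for EC50, and CC50 was taken from multiplexed Cell Titer-Blue.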

[2] = test system: HCV genotype 1a (H77 strain) replicon in HUH-7 cells; experiment: HCV replicon luciferase reporter assay, genotype 1a; type: cell-based; conditions: Hepatitis C virus, Huh-7, 72 h, 3 days incubation, read-out: LE_1a (EC50, range)
Procedure, shortened: as §1

[3] = HCV genotype 1b replicon luciferase
[4] = HCV genotype 1a replicon luciferase
[5] = HCV genotype 1b replicon luciferase assay, range class
[6] = HCV genotype 1a replicon luciferase assay, range class

Compound | EC50 [1, 3] | EC50 [2, 4] | EC50 [1, 5] | EC50 [2, 6] | also measured
COc1ccc2c(O[C@@H]3C[C@H]4C(=O)N[C@]5(C(=O)NS(=O)(=O)C6(C)CC6)C[C@H]5/C=C\CC[C@H](C)C[C@@H](C)[C@H](NC(=O)OC5C[C@@H]6C[C@@H]6C5)C(=O)N4C3)nc(-c3ccc(OC(C)C)nc3)cc2c1 (stereo partly drawn) [Compound 5228, (1R,3r,5S)-bicyclo[3.1.0]hexan-3-yl((2R,6S,7R,9S,13aS,14aR,16aS,Z)-2-((3-(6-isopropoxypyridin-3-yl)-6-methoxyisoquinolin-1-yl)oxy)-7,9-dimethyl-14a-(((1-methylcyclopropyl)sulfonyl)carbamoyl)-5,16-dioxo-1,2,3,5,6,7,8,9,10,11,13a,14,14a,15,16,16a-hexadecahydrocyclopropa[e]pyrrolo[1,2-a][1,4]diazacyclopentadecin-6-yl)carbamate] | < 5.46 nM | 4.82 to 103 nM | – | – | –
COc1ccc2c(O[C@@H]3C[C@H]4C(=O)N[C@]5(C(=O)NS(=O)(=O)C6(F)CC6)C[C@H]5/C=C\CC[C@@H](C)C[C@@H](C)[C@H](NC(=O)C(C)(C)C)C(=O)N4C3)nccc2c1 [Compound 4015] | < 5.46 nM | < 5.46 nM | – | – | –
C[C@@H]1CC/C=C\[C@@H]2C[C@@]2(C(=O)NS(=O)(=O)C2CC2)NC(=O)[C@@H]2C[C@@H](Oc3nccc4c5c(ccc34)N(C)CCO5)CN2C(=O)[C@@H](NC(=O)OC(C)(C)C(F)(F)F)[C@H](C)C1 [Compound 5278, 1,1,1-trifluoro-2-methylpropan-2-yl((2R,6S,7R,9R,13aS,14aR,16aS,Z)-14a-((cyclopropylsulfonyl)carbamoyl)-7,9-dimethyl-2-((4-methyl-3,4-dihydro-2H-[1,4]oxazino[2,3-f]isoquinolin-7-yl)oxy)-5,16-dioxo-1,2,3,5,6,7,8,9,10,11,13a,14,14a,15,16,16a-hexadecahydrocyclopropa[e]pyrrolo[1,2-a][1,4]diazacyclopentadecin-6-yl)carbamate] | < 5.46 nM | < 5.46 nM | – | – | –
COc1ccc2c(O[C@@H]3C[C@H]4C(=O)N[C@]5(C(=O)NS(=O)(=O)C6(F)CC6)C[C@H]5/C=C\CC[C@@H](C)C[C@@H](C)[C@H](NC(=O)OC5CCCC5)C(=O)N4C3)nccc2c1 [Compound 4019] | < 5.46 nM | < 5.46 nM | – | – | –
COc1cc(F)cc2c(O[C@@H]3C[C@H]4C(=O)N[C@]5(C(=O)NS(=O)(=O)C6CC6)C[C@H]5/C=C\CC[C@H](C)C[C@@H](C)[C@H](NC(=O)OC(C)(C)C(F)(F)F)C(=O)N4C3)nccc12 [Compound 3165, 1,1,1-trifluoro-2-methylpropan-2-yl((2R,6S,7R,9S,13aS,14aR,16aS,Z)-14a-((cyclopropylsulfonyl)carbamoyl)-2-((7-fluoro-5-methoxyisoquinolin-1-yl)oxy)-7,9-dimethyl-5,16-dioxo-1,2,3,5,6,7,8,9,10,11,13a,14,14a,15,16,16a-hexadecahydrocyclopropa[e]pyrrolo[1,2-a][1,4]diazacyclopentadecin-6-yl)carbamate] | – | – | 4.82 to 103 nM | 4.82 to 103 nM | –
COc1ccc2c(O[C@@H]3C[C@H]4C(=O)N[C@]5(C(=O)NS(=O)(=O)C6(C)CC6)C[C@H]5/C=C\CC[C@@H](C)C[C@@H](C)[C@H](NC(=O)O[C@H](C)C(F)(F)F)C(=O)N4C3)nc(-c3ccc(F)cc3)cc2c1 [Compound 3083, (R)-1,1,1-trifluoropropan-2-yl ((2R,6S,7R,9R,13aS,14aR,16aS,Z)-2-((3-(4-fluorophenyl)-6-methoxyisoquinolin-1-yl)oxy)-7,9-dimethyl-14a-(((1-methylcyclopropyl)sulfonyl)carbamoyl)-5,16-dioxo-1,2,3,5,6,7,8,9,10,11,13a,14,14a,15,16,16a-hexadecahydrocyclopropa[e]pyrrolo[1,2-a][1,4]diazacyclopentadecin-6-yl)carbamate] | – | – | < 5.46 nM | < 5.46 nM | –
CCOc1nnc(O[C@@H]2C[C@H]3C(=O)N[C@]4(C(=O)NS(=O)(=O)C5CC5)C[C@H]4/C=C\CC[C@H](C)C[C@@H](C)[C@H](NC(=O)OC(C)(C)C)C(=O)N3C2)c2ccccc12 [Compound 5034, tert-butyl ((2R,6S,7R,9S,13aS,14aR,16aS,Z)-14a-((cyclopropylsulfonyl)carbamoyl)-2-((4-ethoxyphthalazin-1-yl)oxy)-7,9-dimethyl-5,16-dioxo-1,2,3,5,6,7,8,9,10,11,13a,14,14a,15,16,16a-hexadecahydrocyclopropa[e]pyrrolo[1,2-a][1,4]diazacyclopentadecin-6-yl)carbamate] | 4.82 to 103 nM | 4.82 to 103 nM | – | – | –
COc1ccc2c(O[C@@H]3C[C@H]4C(=O)N[C@]5(C(=O)NS(=O)(=O)C6CC6)C[C@H]5/C=C\CC[C@H](C)C[C@@H](C)[C@H](NC(=O)OC(C)(C)C)C(=O)N4C3)nccc2c1 [Compound 1067, tert-butyl ((2R,6S,7R,9S,13aS,14aR,16aS,Z)-14a-((cyclopropylsulfonyl)carbamoyl)-2-((6-methoxyisoquinolin-1-yl)oxy)-7,9-dimethyl-5,16-dioxo-1,2,3,5,6,7,8,9,10,11,13a,14,14a,15,16,16a-hexadecahydrocyclopropa[e]pyrrolo[1,2-a][1,4]diazacyclopentadecin-6-yl)carbamate] | – | – | < 5.46 nM | < 5.46 nM | –
C[C@@H]1CC/C=C\[C@@H]2C[C@@]2(C(=O)NS(=O)(=O)C2(C)CC2)NC(=O)[C@@H]2C[C@@H](Oc3nccc4c5c(ccc34)OCCO5)CN2C(=O)[C@@H](NC(=O)O[C@H](C)C(F)(F)F)[C@H](C)C1 [Compound 5253, (R)-1,1,1-trifluoropropan-2-yl ((2R,6S,7R,9R,13aS,14aR,16aS,Z)-2-((2,3-dihydro-[1,4]dioxino[2,3-f]isoquinolin-7-yl)oxy)-7,9-dimethyl-14a-(((1-methylcyclopropyl)sulfonyl)carbamoyl)-5,16-dioxo-1,2,3,5,6,7,8,9,10,11,13a,14,14a,15,16,16a-hexadecahydrocyclopropa[e]pyrrolo[1,2-a][1,4]diazacyclopentadecin-6-yl)carbamate] | < 5.46 nM | < 5.46 nM | – | – | –
COc1cc2ccccc2c(O[C@@H]2C[C@H]3C(=O)N[C@]4(C(=O)NS(=O)(=O)C5CC5)C[C@H]4/C=C\CC[C@@H](C)C[C@@H](C)[C@H](NC(=O)OC(C)(C)C(F)(F)F)C(=O)N3C2)n1 [Compound 6018, 1,1,1-trifluoro-2-methylpropan-2-yl((2R,6S,7R,9R,13aS,14aR,16aS,Z)-14a-((cyclopropylsulfonyl)carbamoyl)-2-((3-methoxyisoquinolin-1-yl)oxy)-7,9-dimethyl-5,16-dioxo-1,2,3,5,6,7,8,9,10,11,13a,14,14a,15,16,16a-hexadecahydrocyclopropa[e]pyrrolo[1,2-a][1,4]diazacyclopentadecin-6-yl)carbamate] | < 5.46 nM | < 5.46 nM | – | – | –
COc1ccc2c(O[C@@H]3C[C@H]4C(=O)N[C@]5(C(=O)NS(=O)(=O)C6(CF)CC6)C[C@H]5/C=C\CC[C@@H](C)C[C@@H](C)[C@H](NC(=O)OC(C)(C)C(C)(F)F)C(=O)N4C3)nccc2c1 [Compound 1143, 3,3-difluoro-2-methylbutan-2-yl((2R,6S,7R,9R,13aS,14aR,16aS,Z)-14a-(((1-(fluoromethyl)cyclopropyl)sulfonyl)carbamoyl)-2-((6-methoxyisoquinolin-1-yl)oxy)-7,9-dimethyl-5,16-dioxo-1,2,3,5,6,7,8,9,10,11,13a,14,14a,15,16,16a-hexadecahydrocyclopropa[e]pyrrolo[1,2-a][1,4]diazacyclopentadecin-6-yl)carbamate] | – | – | < 5.46 nM | 4.82 to 103 nM | –
COCCOc1cnc(O[C@@H]2C[C@H]3C(=O)N[C@]4(C(=O)NS(=O)(=O)C5(C)CC5)C[C@H]4/C=C\CC[C@@H](C)C[C@@H](C)[C@H](NC(=O)OC4C[C@@H]5C[C@H]5C4)C(=O)N3C2)c2ccccc12 [Compound 1039, (1S,5S)-bicyclo[3.1.0]hexan-3-yl((2R,6S,7R,9R,13aS,14aR,16aS,Z)-2-((4-(2-methoxyethoxyl)isoquinolin-1-yl)oxy)-7,9-dimethyl-14a-(((1-methylcyclopropyl)sulfonyl)carbamoyl)-5,16-dioxo-1,2,3,5,6,7,8,9,10,11,13a,14,14a,15,16,16a-hexadecahydrocyclopropa[e]pyrrolo[1,2-a][1,4]diazacyclopentadecin-6-yl)carbamate] | – | – | < 5.46 nM | < 5.46 nM | –
COc1ccc2c(O[C@@H]3C[C@H]4C(=O)N[C@]5(C(=O)NS(=O)(=O)C6(C)CC6)C[C@H]5/C=C\CC[C@@H](C)C[C@@H](C)[C@H](NC(=O)OC(C)(C)C(C)(F)F)C(=O)N4C3)nc(-c3ccc(OC(C)C)cn3)cc2c1 [Compound 5477, 3,3-difluoro-2-methylbutan-2-yl((2R,6S,7R,9R,13aS,14aR,16aS,Z)-2-((3-(5-isopropoxypyridin-2-yl)-6-methoxyisoquinolin-1-yl)oxy)-7,9-dimethyl-14a-(((1-methylcyclopropyl)sulfonyl)carbamoyl)-5,16-dioxo-1,2,3,5,6,7,8,9,10,11,13a,14,14a,15,16,16a-hexadecahydrocyclopropa[e]pyrrolo[1,2-a][1,4]diazacyclopentadecin-6-yl)carbamate] | 1.01 to 5 nM | 1.01 to 5 nM | – | – | –
COc1ccc2c(O[C@@H]3C[C@H]4C(=O)N[C@]5(C(=O)NS(=O)(=O)C6(CF)CC6)C[C@H]5/C=C\CC[C@@H](C)C[C@@H](C)[C@H](NC(=O)OC(C)(C)C(F)(F)F)C(=O)N4C3)ncc(F)c2c1 [Compound 4378] | – | – | – | – | EC50 ([1]; GETYPE1B, HCV genotype 1b replicon luciferase): 0.51 to 1 nM; EC50 ([2]; GETYPE1A, HCV genotype 1a replicon luciferase): 1.01 to 5 nM
